Experimental data from patent publication US9745339B2 (GRAFFINITY PHARMACEUTICALS GMBH, priority 2012, dated 2017).

Columns and labels:
Palivizumab = assay: Microtiter plate chromatography of resins: binding and elution of Palivizumab
Procedure: (§1) Resins were assessed in packed mode by microtiter plate chromatography. For each column, approximately 30 μl of resin were transferred to a 384-well filter plate and sealed with appropriate top fits. Columns with rProtein A SEPHAROSE 4 FF and MABSORBENT A2P HF were included as controls.
(§2) Either 3.3 cv of whole IgGs dissolved at 0.5 mg ml^−1 in PBS or undiluted host cell proteins (HCP) were injected onto columns.
(§3) Unbound protein was washed from columns with 5 cv of PBS prior to elution with 5 cv of glycine buffer at pH 2.5. […] During injection of samples, speed was reduced to 10 g and centrifugation time increased to 5-10 min. Effluent fractions were collected in 384-well plates and concentrations of protein were analyzed by Bradford assay. Protein masses mi, mft and me (see below) were calculated as the product of fraction volume and measured protein concentration.
(§4) The fraction of bound protein was calculated as the difference between the total mass of protein injected mi and the mass of protein detected in the flowthrough mft, divided by the total mass of protein injected.
(§5) The yield of protein was calculated as the mass of protein eluted me, divided by the mass of protein injected mi.
(§6) The fraction of bound protein and the yield of protein were calculated for each resin based on data for whole IgG-antibodies. In the case of host cell proteins, only the fraction of bound protein is given. Selectivity of resins was calculated from data for Bevacizumab whole IgG and host cell proteins. Due to limited experimental precision, selectivity was truncated for values beyond 10.

Tocilizumab = assay: Microtiter plate chromatography of resins: binding and elution of Tocilizumab
Procedure: as §1, §2, §3, §4, §5, §6

Bevacizumab [1] = target: T1, Bevacizumab (Homo sapiens, UniProt P01857); assay: Microtiter plate chromatography of resins: binding and elution of Bevacizumab
T1 construct: 0.5 mg/ml IgG in PBS pH 7.3; ligand immobilized on SEPHAR; Bevacizumab Yield; other: mass eluted (glycine pH 2.5) / mass injected; kd (dissociation constant, Langmuir isotherm); other: Bevacizumab 0.05-5 mg/ml in PBS pH 7.3, 25° C., at least 3 h; qm (maximum capacity); other: mg Bevacizumab per ml of resin; Langmuir isotherm; t0; fused on or other part: Humanized anti-VEGF-A VH domain joined N-terminally to the IGHG1 constant region (engineered, no UniProt entry)
Procedure: as §1, §2, §3, §4, §5
(§7) The selectivity of resins was calculated as the fraction of bound Bevacizumab antibody BAb, divided by the fraction of bound host cell proteins BHCP.
as §6

Bevacizumab [2] = assay: as above; conditions: fraction of bound Bevacizumab divided by fraction of bound HCP; truncated for values beyond 10
Procedure: as §1, §2, §3, §4, §5, §7, §6

[3] = tested on: poly-IgG from human serum (h-poly-IgG); assay: Microtiter plate chromatography of resins: binding and elution of human poly-IgG
Procedure: as §1, §2, §3, §4, §5, §6

Cetuximab = assay: Microtiter plate chromatography of resins: binding and elution of Cetuximab
Procedure: as §1, §2, §3, §4, §5, §6

host cell proteins (HCP) = assay: Microtiter plate chromatography of resins: binding of host cell proteins; set-up: species or system CHO cell culture
Procedure: Flowthrough from protein A chromatography (referred to as host cell proteins) was derived from the supernatant of antibody-producing CHO cell culture in serum-free medium. Coomassie brilliant blue dye reagent for Bradford assay was purchased from Thermo Scientific (Bonn/Germany).
as §1, §2, §3, §4, §6

Bevacizumab [4] = target: T1, Bevacizumab; assay: Langmuir isotherms by batch adsorption; format: binding; conditions: read-out: kd (dissociation constant, Langmuir isotherm); Bevacizumab 0.05-5 mg/ml in PBS pH 7.3, 25° C., at least 3 h
Procedure: Experiments were performed with Bevacizumab as antibody. Parameters of Langmuir isotherms for purified antibody were determined by batch adsorption experiments in 96-well microtiter plates. In each well, 10 μl of sorbent slurry (50% v/v) were mixed with 100 μl of protein solution. Initial concentrations varied from 0.05-5 mg/ml in phosphate-buffered saline (0.15 M NaCl, 20 mM phosphate buffer, pH 7.3; PBS). Reactions were agitated vigorously at 25° C. for at least 3 h. Afterwards, antibody concentration in the supernatants were measured by Bradford assay. Data was evaluated by direct fitting of the values with the Langmuir isotherm equation (1).
Parameters of Langmuir isotherms, i.e. dissociation constants Kd and maximum capacities qm, were determined from the measured concentrations in the supernatants. Parameters were estimated by numerical fitting of the model equation derived by Chase (1)

[5] = fraction of injected protein bound, 0.5 mg/ml IgG in PBS pH 7.3
[6] = fraction of injected protein bound, 0.5 mg/ml IgG in PBS pH 7.3, ligand immobilized on SEPHAROSE 4 FF
[7] = mass eluted (glycine pH 2.5) / mass injected
[8] = fraction of injected undiluted host cell proteins bound
[9] = L55-73: estimated values based on the knowledge obtained from L01-L54

Palivizumab Bound (Palivizumab; [5]) [%]	Tocilizumab Bound (Tocilizumab; [5]) [%]	Bevacizumab Bound (Bevacizumab [1]; [6]) [%]	Bevacizumab Yield (Bevacizumab [1]; [7]) [%]	Selectivity (Bevacizumab [2])	h-poly-IgG Bound [3, 5] [%]	Cetuximab Bound (Cetuximab; [5]) [%]	Kd (Bevacizumab [4]) [µM]	Palivizumab Bound (Palivizumab; [9]) [%]	Tocilizumab Bound (Tocilizumab; [9]) [%]	Bevacizumab Bound (Bevacizumab [1]; [9]) [%]	Bevacizumab Yield (Bevacizumab [1]; [9]) [%]	h-poly-IgG Bound [3, 9] [%]	Cetuximab Bound (Cetuximab; [9]) [%]	SMILES	HCP Bound (host cell proteins (HCP); [8]) [%]	HCP Bound (host cell proteins (HCP); [9]) [%]
85	98	100	100	10.0	82	100								NCCCn1cnc2cc(C(=O)Nc3nnc(-c4ccncc4)s3)ccc21 [Ligand L21, 1-(3-Amino-1-propyl)benzimidazole-5-carboxylic acid N-[5-(4-pyridyl)-1,3,4-thiadiazol-2-yl]amide]	2	
58	98	100	95	8.3	63	89								NCCCn1c(=O)c(=O)[nH]c2cc(C(=O)Nc3nnc(-c4ccco4)s3)ccc21 [Ligand L28, 1-(3-Amino-1-propyl)-2,3-dioxo-1,2,3,4-tetrahydroquinoxaline-6-carboxylic acid N-[5-(2-furyl)-1,3,4-thiadiazol-2-yl]amide]	12	
								>60	>90	100	>80	>80	>95	Cc1nc2cc(C(=O)Nc3nnc(-c4ncco4)s3)ccc2n1CCCN [Ligand L73, 1-(3-Amino-1-propyl)-2-methylbenzimidazole-5-carboxylic acid N-[5-(2-oxazolyl)-1,3,4-thiadiazol-2-yl] amide]		<20
								>80	>95	100	>80	>80	100	Cc1nc2cc(C(=O)Nc3ncc(-c4ccco4)s3)ccc2n1CCCN [Ligand L63, 1-(3-Amino-1-propyl)-2-methylbenzimidazole-5-carboxylic acid N-[5-(2-furyl)thiazol-2-yl] amide]		<20
								>60	>90	100	>80	>80	>95	CCc1nc2cc(C(=O)Nc3ccc(-c4ccco4)nn3)ccc2n1CCCN [Ligand L69, 1-(3-Amino-1-propyl)-2-ethylbenzimidazole-5-carboxylic acid N-[6-(2-furyl)pyridazin-3-yl]amide]		<30
								>80	>95	100	>80	>80	100	Cc1nc2cc(C(=O)Nc3nnc(-c4ccoc4)s3)ccc2n1CCCN [Ligand L61, 1-(3-Amino-1-propyl)-2-methylbenzimidazole-5-carboxylic acid N-[5-(3-furyl)-1,3,4-thiadiazol-2-yl] amide]		<40

The remaining lines, values behind:

SMILES	Palivizumab Bound (Palivizumab; [5]) [%]	Tocilizumab Bound (Tocilizumab; [5]) [%]	Bevacizumab Bound (Bevacizumab [1]; [6]) [%]	Bevacizumab Yield (Bevacizumab [1]; [7]) [%]	Selectivity (Bevacizumab [2])	h-poly-IgG Bound [3, 5] [%]	Cetuximab Bound (Cetuximab; [5]) [%]	Kd (Bevacizumab [4]) [µM]	Palivizumab Bound (Palivizumab; [9]) [%]	Tocilizumab Bound (Tocilizumab; [9]) [%]	Bevacizumab Bound (Bevacizumab [1]; [9]) [%]	Bevacizumab Yield (Bevacizumab [1]; [9]) [%]	h-poly-IgG Bound [3, 9] [%]	Cetuximab Bound (Cetuximab; [9]) [%]	HCP Bound (host cell proteins (HCP); [8]) [%]	HCP Bound (host cell proteins (HCP); [9]) [%]
NCCCn1cnc2cc(C(=O)Nc3nc(-c4ccccc4)ns3)ccc21 [Ligand L22, 1-(3-Amino-1-propyl)benzimidazole-5-carboxylic acid N-(3-phenyl-1,2,4-thiadiazol-5-yl) amide]	100	100	100	104	3.3	100	100								30	
NCCOCCOc1ccc(C(=O)Nc2nnc(-c3ccco3)s2)cc1 [Ligand L37, 4-(5-Amino-3-oxa-1-pentyloxy)benzoic acid N-[5-(2-furyl)-1,3,4-thiadiazol-2-yl] amide]	100	100	100	87	4.0	100	100								25	
NCCCn1cnc2cc(C(=O)Nc3nc4ccccc4o3)ccc21 [Ligand L08, 1-(3-Amino-1-propyl)benzimidazole-5-carboxylic acid N-(benzoxazol-2-yl) amide]	91	100	100	100	2.6	95	100								39	
NCCCn1cnc2cc(C(=O)Nc3nccs3)ccc21 [Ligand L16, 1-(3-Amino-1-propyl)benzimidazole-5-carboxylic acid N-(thiazol-2-yl) amide]	87	100	100	96	2.7	88	100								37	
NCCCn1cc(-c2ccc(C(=O)Nc3nnc(-c4ccco4)s3)cc2)nn1 [Ligand L48]			100					713								
Cn1nc(C(=O)Nc2ccc3c(c2)C(=O)N(CCCN)CCO3)c2ccccc21 [Ligand L03, 4-(3-Amino-1-propyl)-7-[(1-methylindazol-3-yl)carboxamido]-2,3,4,5-tetrahydrobenzo[f][1,4]oxazepin-5-one]	78	99	100	92	2.2		99								45	
Cn1nc(NC(=O)c2ccc3c(c2)nnn3CCCN)c2ccccc21 [Ligand L06, 1-(3-Amino-1-propyl)benzotriazole-5-carboxylic acid N-(1-methylindazol-3-yl) amide]	74		100	84	3.2										31	
